# In PubChem BioAssay AID1259407 (Chemical Carcinogenesis Research Information System (CCRIS), 2018):
# The source made the active and inactive calls. No rule for the calls is given here.
# Test system: CCRIS mutagenicity, Ames/micronucleus/aberration tests
# Test: CCRIS mutagenicity studies
# [1] = Test System: AMES SALMONELLA TYPHIMURIUM, Strain/Indicator: TA98, Metabolic Activation: NONE, Method: STANDARD PLATE
# [2] = Test System: AMES SALMONELLA TYPHIMURIUM, Strain/Indicator: TA100, Metabolic Activation: NONE, Method: STANDARD PLATE
# [3] = Test System: AMES SALMONELLA TYPHIMURIUM, Strain/Indicator: TA1537, Metabolic Activation: NONE, Method: STANDARD PLATE
# [4] = Test System: AMES SALMONELLA TYPHIMURIUM, Strain/Indicator: TA98, Metabolic Activation: RAT, LIVER, S-9, AROCLOR 1254, Method: STANDARD PLATE
# [5] = Test System: AMES SALMONELLA TYPHIMURIUM, Strain/Indicator: TA100, Metabolic Activation: RAT, LIVER, S-9, AROCLOR 1254, Method: STANDARD PLATE
compound,measurement,setting,value
CC(=O)Nc1ccc(CC(=O)O)cc1,mutagenic call,"Test System: AMES SALMONELLA TYPHIMURIUM, Strain/Indicator: TA98, Metabolic Activation: NONE",inactive; negative
same,mutagenic call,"Test System: AMES SALMONELLA TYPHIMURIUM, Strain/Indicator: TA98, Metabolic Activation: RAT, LIVER, S-9, AROCLOR 1254",inactive; negative
same,mutagenic call,"Test System: AMES SALMONELLA TYPHIMURIUM, Strain/Indicator: TA100, Metabolic Activation: NONE",inactive; negative
same,mutagenic call,"Test System: AMES SALMONELLA TYPHIMURIUM, Strain/Indicator: TA100, Metabolic Activation: RAT, LIVER, S-9, AROCLOR 1254",inactive; negative
same,mutagenic call,"Test System: AMES SALMONELLA TYPHIMURIUM, Strain/Indicator: TA1535, Metabolic Activation: NONE",inactive; negative
same,mutagenic call,"Test System: AMES SALMONELLA TYPHIMURIUM, Strain/Indicator: TA1535, Metabolic Activation: RAT, LIVER, S-9, AROCLOR 1254",inactive; negative
same,mutagenic call,"Test System: AMES SALMONELLA TYPHIMURIUM, Strain/Indicator: TA1537, Metabolic Activation: NONE",inactive; negative
same,mutagenic call,"Test System: AMES SALMONELLA TYPHIMURIUM, Strain/Indicator: TA1537, Metabolic Activation: RAT, LIVER, S-9, AROCLOR 1254",inactive; negative
same,mutagenic call,"Test System: AMES SALMONELLA TYPHIMURIUM, Strain/Indicator: TA1538, Metabolic Activation: NONE",inactive; negative
same,mutagenic call,"Test System: AMES SALMONELLA TYPHIMURIUM, Strain/Indicator: TA1538, Metabolic Activation: RAT, LIVER, S-9, AROCLOR 1254",inactive; negative
same,mutagenic call,"Test System: E. COLI, Strain/Indicator: WP2, Metabolic Activation: NONE",inactive; negative
same,mutagenic call,"Test System: E. COLI, Strain/Indicator: WP2, Metabolic Activation: RAT, LIVER, S-9, AROCLOR 1254",inactive; negative
same,mutagenic call,"Test System: E. COLI, Strain/Indicator: WP2 UVRA, Metabolic Activation: NONE",inactive; negative
same,mutagenic call,"Test System: E. COLI, Strain/Indicator: WP2 UVRA, Metabolic Activation: RAT, LIVER, S-9, AROCLOR 1254",inactive; negative
CCCCCCCCCCCC(=O)OOC(=O)CCCCCCCCCCC,mutagenic call,"Test System: AMES SALMONELLA TYPHIMURIUM, Strain/Indicator: TA98, Metabolic Activation: HAMSTER, LIVER, S-9, AROCLOR 1254 (10%), Method: STANDARD PLATE",inactive; negative
same,mutagenic call,[1],inactive; negative
same,mutagenic call,"Test System: AMES SALMONELLA TYPHIMURIUM, Strain/Indicator: TA98, Metabolic Activation: RAT, LIVER, S-9, AROCLOR 1254 (10%), Method: STANDARD PLATE",inactive; negative
same,mutagenic call,"Test System: AMES SALMONELLA TYPHIMURIUM, Strain/Indicator: TA100, Metabolic Activation: HAMSTER, LIVER, S-9, AROCLOR 1254 (10%), Method: STANDARD PLATE",inactive; negative
same,mutagenic call,[2],inactive; negative
same,mutagenic call,"Test System: AMES SALMONELLA TYPHIMURIUM, Strain/Indicator: TA100, Metabolic Activation: RAT, LIVER, S-9, AROCLOR 1254 (10%), Method: STANDARD PLATE",inactive; negative
same,mutagenic call,"Test System: AMES SALMONELLA TYPHIMURIUM, Strain/Indicator: TA1535, Metabolic Activation: HAMSTER, LIVER, S-9, AROCLOR 1254 (10%), Method: STANDARD PLATE",inactive; negative
same,mutagenic call,"Test System: AMES SALMONELLA TYPHIMURIUM, Strain/Indicator: TA1535, Metabolic Activation: NONE, Method: STANDARD PLATE",inactive; negative
same,mutagenic call,"Test System: AMES SALMONELLA TYPHIMURIUM, Strain/Indicator: TA1535, Metabolic Activation: RAT, LIVER, S-9, AROCLOR 1254 (10%), Method: STANDARD PLATE",inactive; negative
same,mutagenic call,"Test System: AMES SALMONELLA TYPHIMURIUM, Strain/Indicator: TA1537, Metabolic Activation: HAMSTER, LIVER, S-9, AROCLOR 1254 (10%), Method: STANDARD PLATE",inactive; negative
same,mutagenic call,[3],inactive; negative
same,mutagenic call,"Test System: AMES SALMONELLA TYPHIMURIUM, Strain/Indicator: TA1537, Metabolic Activation: RAT, LIVER, S-9, AROCLOR 1254 (10%), Method: STANDARD PLATE",inactive; negative
same,mutagenic call,"Test System: AMES SALMONELLA TYPHIMURIUM, Strain/Indicator: TA1538, Metabolic Activation: HAMSTER, LIVER, S-9, AROCLOR 1254 (10%), Method: STANDARD PLATE",inactive; negative
same,mutagenic call,"Test System: AMES SALMONELLA TYPHIMURIUM, Strain/Indicator: TA1538, Metabolic Activation: NONE, Method: STANDARD PLATE",inactive; negative
same,mutagenic call,"Test System: AMES SALMONELLA TYPHIMURIUM, Strain/Indicator: TA1538, Metabolic Activation: RAT, LIVER, S-9, AROCLOR 1254 (10%), Method: STANDARD PLATE",inactive; negative
same,mutagenic call,"Test System: MOUSE LYMPHOMA, Strain/Indicator: L5178Y (TK+/TK-), Metabolic Activation: NONE, Method: SUSPENSION/PLATE",inactive; negative. reevaluation of results: inconclusive
same,mutagenic call,"Test System: MOUSE LYMPHOMA, Strain/Indicator: L5178Y (TK+/TK-), Metabolic Activation: RAT, LIVER, S-9, AROCLOR 1254, Method: SUSPENSION/PLATE",inactive; negative. reevaluation of results: inconclusive
Cc1ccc2ccc3ccccc3c2c1C,mutagenic call,[1],inactive; negative
same,mutagenic call,[4],inactive; negative
same,mutagenic call,[2],inactive; negative
same,mutagenic call,[5],inactive; negative
O=C1c2c(O)ccc3c2[C@H](c2ccc(O)c4c2[C@H]3[C@H]2O[C@H]2C4=O)[C@H]2O[C@@H]12,mutagenic call,[1],active; positive
same,mutagenic call,[4],active; positive
same,mutagenic call,"Test System: AMES SALMONELLA TYPHIMURIUM, Strain/Indicator: TA98, Method: STANDARD PLATE",active; positive
same,mutagenic call,[2],active; positive
same,mutagenic call,[5],active; positive
same,mutagenic call,[3],active; positive
same,mutagenic call,"Test System: AMES SALMONELLA TYPHIMURIUM, Strain/Indicator: TA1537, Metabolic Activation: RAT, LIVER, S-9, AROCLOR 1254, Method: STANDARD PLATE",active; positive
Cc1ccc2c(c1)c(=NC(=O)c1cccc([N+](=O)[O-])c1)sn2C(=O)c1cccc([N+](=O)[O-])c1,mutagenic call,"Test System: AMES SALMONELLA TYPHIMURIUM, Strain/Indicator: TA100, Metabolic Activation: S-9, Method: STANDARD PLATE",active; positive
